ChEMBL document CHEMBL4619809, “Chemically Induced Degradation of WEE1 Kinase for Difficult to Treat Diseases” (ACS Med Chem Lett, 2020)

Target: Protein cereblon/Wee1-like protein kinase (Homo sapiens) (UniProt P30291+Q96SW2)
Assay: Protac activity at CRBN/WEE1 in human MOLT4 cells assessed as induction of degradation of WEE1 at 1 uM incubated for 6 hrs by immunoblot analysis relative to control
Type: cell-based
Conditions: MOLT-4

Chain of Protein cereblon/Wee1-like protein kinase (Homo sapiens) (P30291 whole entry, looked up): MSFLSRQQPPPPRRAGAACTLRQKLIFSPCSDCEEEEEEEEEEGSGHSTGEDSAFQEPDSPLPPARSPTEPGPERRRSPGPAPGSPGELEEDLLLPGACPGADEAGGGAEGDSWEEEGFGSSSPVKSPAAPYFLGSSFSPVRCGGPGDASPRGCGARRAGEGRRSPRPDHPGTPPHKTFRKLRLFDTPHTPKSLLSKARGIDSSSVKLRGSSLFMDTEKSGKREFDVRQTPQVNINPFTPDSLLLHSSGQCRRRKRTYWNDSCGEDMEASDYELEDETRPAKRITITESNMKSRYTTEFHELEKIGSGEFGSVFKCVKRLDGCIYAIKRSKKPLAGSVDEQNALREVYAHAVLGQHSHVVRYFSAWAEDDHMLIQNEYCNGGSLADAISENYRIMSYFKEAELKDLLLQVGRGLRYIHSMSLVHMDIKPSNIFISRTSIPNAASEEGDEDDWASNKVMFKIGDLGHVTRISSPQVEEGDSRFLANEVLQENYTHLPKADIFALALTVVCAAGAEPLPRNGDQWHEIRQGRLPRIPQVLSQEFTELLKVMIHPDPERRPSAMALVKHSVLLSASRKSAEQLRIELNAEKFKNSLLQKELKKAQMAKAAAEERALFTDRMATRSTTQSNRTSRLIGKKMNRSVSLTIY
Chain of Protein cereblon/Wee1-like protein kinase (Homo sapiens) (Q96SW2 whole entry, looked up): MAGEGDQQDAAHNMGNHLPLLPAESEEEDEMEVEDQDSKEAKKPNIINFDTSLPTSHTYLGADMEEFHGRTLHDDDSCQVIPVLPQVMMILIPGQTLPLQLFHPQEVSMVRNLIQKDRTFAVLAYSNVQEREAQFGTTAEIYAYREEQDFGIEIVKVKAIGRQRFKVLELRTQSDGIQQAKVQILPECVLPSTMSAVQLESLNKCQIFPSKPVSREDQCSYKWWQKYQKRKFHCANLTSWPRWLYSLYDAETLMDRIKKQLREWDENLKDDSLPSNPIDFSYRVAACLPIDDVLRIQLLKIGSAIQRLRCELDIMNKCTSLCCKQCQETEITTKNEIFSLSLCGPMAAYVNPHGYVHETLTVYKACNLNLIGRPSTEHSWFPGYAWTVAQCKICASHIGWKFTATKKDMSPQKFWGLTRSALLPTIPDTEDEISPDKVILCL

Row | SMILES | Activity
1 | C=CCn1c(=O)c2cnc(Nc3ccc(N4CCN(C(=O)CCOCCOCCNc5cccc6c5C(=O)N(C5CCC(=O)NC5=O)C6)CC4)cc3)nc2n1-c1cccc(C(C)(C)O)n1 (stereo not given) | 25 to 50%
2 | C=CCn1c(=O)c2cnc(Nc3ccc(N4CCN(CCCNC(=O)CCOCCOCCNc5cccc6c5C(=O)N(C5CCC(=O)NC5=O)C6=O)CC4)cc3)nc2n1-c1cccc(C(C)(C)O)n1 (stereo not given) | > 50%
3 | C=CCn1c(=O)c2cnc(Nc3ccc(N4CCN(C(=O)CCOCCNc5cccc6c5C(=O)N(C5CCC(=O)NC5=O)C6=O)CC4)cc3)nc2n1-c1cccc(C(C)(C)O)n1 (stereo not given) | > 50%
4 | C=CCn1c(=O)c2cnc(Nc3ccc(N4CCN(C(=O)CCOCCOCCNc5cccc6c5C(=O)N(C5CCC(=O)NC5=O)C6=O)CC4)cc3)nc2n1-c1cccc(C(C)(C)O)n1 (stereo not given) | > 50%
5 | C=CCn1c(=O)c2cnc(Nc3ccc(N4CCN(C(=O)CCOCCOCCOCCN5CCN(Cc6ccc(COc7cccc8c7CN([C@H]7CCC(=O)NC7=O)C8=O)cc6)CC5)CC4)cc3)nc2n1-c1cccc(C(C)(C)O)n1 | > 50%
6 | C=CCn1c(=O)c2cnc(Nc3ccc(N4CCN(CCCNC(=O)CCOCCOCCOCCOCCNc5cccc6c5C(=O)N(C5CCC(=O)NC5=O)C6=O)CC4)cc3)nc2n1-c1cccc(C(C)(C)O)n1 (stereo not given) | > 50%
7 | C=CCn1c(=O)c2cnc(Nc3ccc(N(C)CCCCNc4cccc5c4C(=O)N(C4CCC(=O)NC4=O)C5=O)cc3)nc2n1-c1cccc(C(C)(C)O)n1 (stereo not given) | > 50%

Next, values leading:

Row | Activity | SMILES
8 | > 50% | C=CCn1c(=O)c2cnc(Nc3ccc(N4CCN(CCCNc5cccc6c5C(=O)N(C5CCC(=O)NC5=O)C6=O)CC4)cc3)nc2n1-c1cccc(C(C)(C)O)n1 (stereo not given)
9 | > 50% | C=CCn1c(=O)c2cnc(Nc3ccc(N4CCN(CCCNc5cccc6c5C(=O)N(C5CCC(=O)NC5=O)C6=O)CC4)cc3)nc2n1-c1cccc(OC)n1 (stereo not given)
10 | > 50% | C=CCn1c(=O)c2cnc(Nc3ccc(N4CCN(CCCNc5cccc6c5C(=O)N(C5CCC(=O)NC5=O)C6=O)CC4)cc3)nc2n1-c1cccc(C(F)(F)F)n1 (stereo not given)
